# Experimental data: patent publication US10675286B2, “Heterocyclic compounds and uses thereof” (Infinity Pharmaceuticals, Inc., priority 2014, dated 2020)
# pIC50: −log10 of the molar value. “Also recorded” adds a separate entry of the source. Like-named read-outs stand apart in the source and are kept apart here.
# Columns and labels:
# [1] = Dose-exposure proportionality (FIG. 44); settings: in vivo
# [2] = Oral pharmacokinetics of Compound BB in dog; assay type: in vivo; settings: 5 mg/kg oral
# Description: Compound BB's oral exposure is high in rat, dog and monkey. Good oral bioavailability and low clearance in rodent and non-rodent animal species results in high oral exposure.
# Lewis Lung Carcinoma = Lewis Lung Carcinoma model; assay type: in vivo; settings: single agent
# Cytochrome P450 isoforms = assay: Cytochrome P450 inhibition (ADME characteristics, Table 25); assay type: in vitro ADME; settings: main Cytochrome P450 isoforms
# Description: (§1) These properties indicate the compound's suitability for in vivo administration.
# [3] = tested on: bone marrow cells differentiating into MDSCs; assay: Myeloid Derived Suppressor Cell differentiation assay (VEGF, ARG1); assay type: cell-based
# Procedure: A similar experiment was performed on bone marrow cells differentiating into MDSCs.
# [4] = Pharmacokinetics in rodent and non-rodent animal species (ADME characteristics, Table 25)
# Description: as §1
# [5] = tested on: differentiation of myeloid cells into M2 TAMs; assay: Murine M2 TAM differentiation (ARG1 levels); assay type: cell-based, mouse
# Description: High ARG1 (Arginase-1) levels indicate that myeloid cells are differentiating into M2 macrophages, so lower ARG1 levels relative to a control indicate interference with differentiation into M2 macrophages. Expression of Arginase-1 depletes the tumor microenvironment of arginine, thereby promoting T cell death and NK cell inhibition. Schmid et. al., Proceedings: AACR 103rd Annual Meeting 2012, Cancer Research: Apr. 15, 2012; Volume 72, Issue 8, Supplement 1. […] M2 TAMs promote cancer cell survival (FIG. 23).
# GL-261 glioma = GL-261 glioma model, Compound BB with or without temozolomide; assay type: in vivo, mouse; settings: Compound BB 15 mg/kg QD PO, from start or following temozolomide, vs vehicle
# Procedure: TMZ was dosed IP 1×/day for 7 days.
# Animals: C57 Albino mice (male) from Jackson Labs, n=80. Parameters Evaluated:
# In life: Mice were dosed QD with Compound BB. Temozolomide was dosed QD IP, for 7 days. Tumor measurements and bodyweights were taken 2×/week, but caliper and xenogen measurements.
# End point analysis: Tumors were cut in half. One half was cut in half again with ½ fixed in 10% NBF the other was frozen in OCT for frozen sections. The remaining half was processed to single cell suspention and evaluated by FACS.
# PD satellite group—8 mice from the TMZ treated mice and 8 mice from the vehicle treated mice were sacrificed on day 7 post treatment. Tumors were processed to single cell suspention and evaluated by FACS.
# CT26 colon cancer = CT26 colon cancer model; assay type: in vivo, mouse; settings: CT26 subcutaneous tumors
# [6] = tested on: IL-8 induced neutrophil migration; assay: IL-8 driven murine air pouch model; assay type: in vivo; settings: mouse; Compound BB 0.1, 0.3, 1, 3 mg/kg; Compound AA 10, 25, about 50 mg/kg; vs vehicle
# Description: IL-8 chemoattracts and activates neutrophils.
# Human hep = Human hep viability (ADME characteristics, Table 25); assay type: cell-based
# [7] = Stability in simulated gastric fluid; assay type: physicochemical; settings: 38° simulated gastric fluid
# Description: The phyiscochemical properties of Compound BB are drug-like, and suitable for use of the compound as a drug.
# [8] = Target organ toxicity (TOT) study in rats, 10 days oral; assay type: in vivo
# Procedure: A target organ toxicity (TOT) study was performed in rats. […] This study assessed clinical observations/mortality, body weights, clinical pathology, toxicokinetics, and histopathology of select tissues. The tissues studied were: Adrenal gland, Bone marrow (femur), Brain, Small Intestine (including GALT), Heart, Large Intestine, Kidney, Stomach, Liver, Pancreas, Spleen, Testis, and Thymus. Doses were selected based on repeat-dose tolerability study, PK and plasma protein binding, and cellular IC50s for PI3K isoforms.
# 4T1 mammary carcinoma = assay: 4T1 breast cancer model (orthotopic / subcutaneous), tumor growth and IHC; assay type: in vivo, mouse
# Procedure: Plasma is collected for pharmokinetic (PK) analysis.
# Luciferin measurements were taken twice a week.
# Immunohistochemistry was performed to determine the distribution of immune cells within the tumor. In particular, CD11b myeloid cells were examined, as were regulatory vs. effector T cells (CD3, CD4, CD8, FoxP3).
# [9] = tested on: CXCL12 induced p-AKT in bone marrow derived macrophages; assay: CXCL12-induced p-AKT induction assay in differentiated, polarized macrophages; assay type: cell-based, mouse; settings: Mus musculus, Macrophage
# Description: Long bones from young C57B6 mice were harvested and bone marrow was extruded by gentle lavage of the bone marrow cavities with a 28 gauge needle. Red blood cells were removed using red blood cell lysis buffer (Sigma). Bone marrow cells were differentiated to macrophages using MCSF for 6 days (RPMI and 20% FCS) with one media change (with removal of all non-adherent cells) at day 3. Macrophages were polarized into M0 (MCSF), M1 (MCSF, IFNγ, and LPS for 1 day), or M2 (MCSF, IL4 for 2 days).
# Polarized macrophages were lifted with Acutase, and plated at 0.5M cells per well (0.5 ml) in a deep well (2 ml) non adherant plate in polarization media for 1 hour. […] CXCL12 was added, and the cells were mixed on a plate shaker for 2 minutes. 1 ml of 37 degree FACS Lyse/fix buffer (BD bioscience) was added and the plate was mixed for 1 minute. The plates were spun and decanted and frozen at −80° C. Phospho AKT staining with anti Phospho AKT 473 PERCP labeled (Cell Signaling Technologies) was performed and measured by flow cytometry. Total cell MFI was used to calculate the effect of tested compound on CXCL12 induction of phospho AKT.
# [10] = orthotopic 4T1, 7.5 mg/kg PO once daily 3 weeks
structure (smiles),measurement,setting,value
C[C@H](NC(=O)c1c(N)nn2cccnc12)c1cc2cccc(C#Cc3cnn(C)c3)c2c(=O)n1-c1ccccc1 [Compound BB],dose-exposure relationship,[1],dose-exposure proportionality
same,"Oral exposure (plasma concentrations within 24 hours, FIG. 43)",[2],high
same,activity in the Lewis Lung Carcinoma model,Lewis Lung Carcinoma,single agent activity
same,CYP inhibition,Cytochrome P450 isoforms,does not substantially inhibit CYP; also recorded: low potential for reversible inhibition
same,VEGF and ARG1 in MDSC differentiation assay (FIG. 24),[3],suppressed both VEGF (FIG. 24A) and ARG1 (FIG. 24B)
same,Clearance and half-life in vivo,[4],low clearance and a long half-life in vivo
same,"Differentiation of myeloid cells into M2 TAMs (ARG1 levels, FIG. 22)",[5],inhibited M2 TAM differentiation much more effectively than PI3K-δ inhibitor
same,"Tumor volume (FIGS. 53, 54)",GL-261 glioma,effective in reducing the tumor volume; also recorded: significant reduction in tumor volume
same,Monocytic iMCs in tumor,CT26 colon cancer,decreased
same,IL-8 induced neutrophil migration into air pouch,[6],blocks IL-8 induced neutrophil migration
same,pIC50,Human hep,4.60 to 5.00
same,Stability in simulated gastric fluid,[7],> 4 h
same,"Histopathology, gross changes",[8]; 10 days,no significant gross changes were observed
same,Decrease in body weights compared to vehicle,"[8]; high dose (50 mg/kg/day), 10 days",5-8%
same,"Histopathology, thymus","[8]; males at ≥7.5 mg/kg/day, females at 50 mg/kg/day",minimal/mild lymphoid depletion
same,Mortality and clinical signs,"[8]; oral 10 days, any dose level",No mortality or clinical signs were observed
same,Tolerability,"[8]; oral, 1, 7.5, 20, 50 mg/kg/day",well-tolerated for 10 days
same,"Histopathology, spleen",[8]; primarily at doses ≥20 mg/kg/day,minimal/mild lymphoid depletion of the marginal zone and periarteriolar lymphoid sheaths (PALS)
same,Clinical pathology,[8]; primarily in 20 and 50 mg/kg/day groups,"minimal changes in neutrophils, lymphocytes, and fibrinogen"
same,Tumor growth (FIG. 35),"4T1 mammary carcinoma; 4T1, Compound BB alone 15 mg/kg once daily 2 weeks",achieved a reduction in tumor growth
same,"CD11b+ myeloid cell staining in viable tumor regions (IHC, FIG. 37A)","4T1 mammary carcinoma; 4T1 tumors, day 13, vs vehicle",decrease in CD11b+ myeloid cell staining
same,Total luciferase flux (FIG. 33B),4T1 mammary carcinoma; [10],reduced total luciferase flux
same,Tumor growth (FIG. 33A),4T1 mammary carcinoma; [10],reduced tumor growth
same,Time the anti-tumor effect was maintained after discontinuation of treatment,4T1 mammary carcinoma; subcutaneous 4T1,at least 6 days
same,"Tumor growth (FIG. 34, FIG. 36)","4T1 mammary carcinoma; subcutaneous 4T1, single agent",demonstrated single agent activity
same,pIC50,"[9]; read-out: IC50, CXCL12 induced p-AKT, differentiated and M1 polarized macrophage",~7.85
same,pIC50,"[9]; read-out: IC50, CXCL12 induced p-AKT, differentiated and M2 polarized macrophage",~8.08
